From the NIST ThermoML archive (doi:10.1021/je8002699)

Key:
[1] = xn = mol fraction of the nth substance listed; details: for mass density / speed of sound / viscosity: 101 kPa, Liquid
[2] = refractive index (Na D-line) (dimensionless); xn = mol fraction of the nth substance listed; details: 101 kPa, Liquid

CC(=O)CC(C)(C)O [4-hydroxy-4-methylpentan-2-one] + CCc1ccccc1
Details	mass density, [1] [kg/m3]	refractive index, [2]	speed of sound, [1] [m/s]	surface tension liquid-gas, [1] [mN/m]	viscosity, [1] [mPa·s]
303.15 K, x1 = 0.1814	880.9	1.4864	1322	29.92	1.02
303.15 K, x1 = 0.2621	886.6	1.4813	1316	29.88	1.191
303.15 K, x1 = 0.3445	892.5	1.4753	1311	29.84	1.35
303.15 K, x1 = 0.4219	898	1.4701	1305	29.8	1.511
303.15 K, x1 = 0.5447	906.5	1.4599	1296	29.76	1.752
303.15 K, x1 = 0.6624	914.7	1.4505	1286	29.71	2.001
303.15 K, x1 = 0.7667	922	1.4425	1277	29.62	2.266
303.15 K, x1 = 0.8388	926.5	1.4373	1271	29.58	2.433
303.15 K, x1 = 0.9219	931.5	1.43	1264	29.5	2.66
303.15 K, x1 = 1	936	1.4239	1256	29.44	2.89
313.15 K, x1 = 0.1814	856	1.479	1271	29.04	0.9211
313.15 K, x1 = 0.2621	861.8	1.4741	1265	29.04	1.066
313.15 K, x1 = 0.3445	867.8	1.469	1257	29.03	1.234
313.15 K, x1 = 0.4219	873.3	1.4637	1250	29.03	1.4
313.15 K, x1 = 0.5447	882.2	1.454	1237	29.03	1.501
313.15 K, x1 = 0.6624	890.8	1.4458	1224	29.03	1.688
313.15 K, x1 = 0.7667	897.5	1.4384	1212	29.03	1.911
313.15 K, x1 = 0.8388	902.2	1.4335	1204	29	2.377
313.15 K, x1 = 0.9219	907.6	1.4264	1194	28.95	2.511
313.15 K, x1 = 1	912.1	1.4198	1183	28.92	2.791
323.15 K, x1 = 0.1814	845.9	1.4721	1192	27.97	0.7842
323.15 K, x1 = 0.2621	851.6	1.4675	1186	27.9	0.8814
323.15 K, x1 = 0.3445	857.5	1.4624	1180	27.82	0.9901
323.15 K, x1 = 0.4219	863	1.4518	1175	27.75	1.011
323.15 K, x1 = 0.5447	871.5	1.451	1165	27.64	1.201
323.15 K, x1 = 0.6624	879.9	1.4433	1156	27.53	1.354
323.15 K, x1 = 0.7667	886.6	1.4363	1146	27.44	1.521
323.15 K, x1 = 0.8388	891.3	1.4285	1138	27.35	1.812
323.15 K, x1 = 0.9219	896.9	1.4225	1130	27.24	2.082
323.15 K, x1 = 1	901	1.4151	1121	27.12	2.67

CC(=O)CC(C)(C)O [4-hydroxy-4-methylpentan-2-one] + O=[N+]([O-])c1ccccc1
Details	mass density, [1] [kg/m3]	refractive index, [2]	speed of sound, [1] [m/s]	surface tension liquid-gas, [1] [mN/m]	viscosity, [1] [mPa·s]
303.15 K, x1 = 0.1248	1163.9	1.5377	1395	39.8	2.022
303.15 K, x1 = 0.2389	1130.2	1.5245	1378	38.7	2.161
303.15 K, x1 = 0.3446	1102.1	1.5113	1363	37.5	2.282
303.15 K, x1 = 0.4921	1062	1.4931	1341	35.9	2.45
303.15 K, x1 = 0.5853	1038	1.4822	1327	34.7	2.562
303.15 K, x1 = 0.6427	1023	1.474	1317	34	2.624
303.15 K, x1 = 0.7532	995.6	1.4601	1298	32.7	2.735
303.15 K, x1 = 0.8226	979.1	1.45	1287	31.7	2.791
303.15 K, x1 = 0.9349	–	1.43	1263	29.5	2.889
303.15 K, x1 = 1	936	1.4239	1256	29.44	2.89
313.15 K, x1 = 0.1248	1157.7	1.5351	1304	37.45	1.752
313.15 K, x1 = 0.2389	1120.9	1.521	1290	36.6	1.931
313.15 K, x1 = 0.3446	1088.8	1.508	1277	35.6	2.137
313.15 K, x1 = 0.4921	1046.3	1.4897	1258	34.3	2.412
313.15 K, x1 = 0.5853	1019.9	1.4782	1244	33.4	2.541
313.15 K, x1 = 0.6427	1004.4	1.4706	1236	32.8	2.661
313.15 K, x1 = 0.7532	975.5	1.4548	1221	31.7	2.741
313.15 K, x1 = 0.8226	957.8	1.4456	1211	31	2.764
313.15 K, x1 = 0.9349	–	1.4261	1190	29.4	2.79
313.15 K, x1 = 1	912	1.4198	1183	28.92	2.791
323.15 K, x1 = 0.1248	1146.5	1.5304	1212	35.8	1.658
323.15 K, x1 = 0.2389	1109.6	1.5268	1201	35	1.843
323.15 K, x1 = 0.3446	1077.5	1.5048	1192	34.3	2.018
323.15 K, x1 = 0.4921	1035	1.486	1178	33.11	2.32
323.15 K, x1 = 0.5853	999.9	1.475	1169	32.3	2.492
323.15 K, x1 = 0.6427	993.1	1.4675	1163	31.8	2.579
323.15 K, x1 = 0.7532	964.3	1.4503	1152	–	2.651
323.15 K, x1 = 0.8226	946.6	1.4412	1144	30.1	2.661
323.15 K, x1 = 0.9349	910	1.4215	1128	28.8	2.67
323.15 K, x1 = 1	901	1.4151	1121	28.12	2.67
